# Test results reported in patent US7868135B2, “Compositions of lipopeptide antibiotic derivatives and methods of use thereof” (priority 2003, dated 2011).
# Marks after values point to notes of the source that are not given here. Starred links: 1 amine or outer side, 2 acyl side, 3 side chain; linkers in the order of their positions; H or OH if unused. Positions of bridges follow the written chain, without caps; N, C: chain ends. Non-standard residues stand in square brackets, D forms with d. Residues, ends and D or L forms follow the SMILES beside them. ξ: configuration not given here. *: point of attachment. X25 = CC(NC(=O)[C@@H]1CCC(=O)N1)C(N[*:1])C(=O)[*:2]; ξAbu(βξ-NH2) = CC(N[*:3])C(N[*:1])C(=O)[*:2]; Phac(3-amino) = O=C(Cc1cccc(N[*:1])c1)[*:2]; Pentadecanoyl = CCCCCCCCCCCCCCC(=O)*; ξAsp(βξ-Me) = CC(C(=O)O)C(N)C(=O)O; ξAbu(3ξ-NH2) = CC(N)C(N)C(=O)O; X32 = CC(C)CCCCCC/C=C\C(=O)*; 12Ado = NCCCCCCCCCCCC(=O)O; Decanoyl = CCCCCCCCCC(=O)*; Octanoyl = CCCCCCCC(=O)*; Pip = O=C(O)[CH]1CCCCN1; Hexanoyl = CCCCCC(=O)*; ξD = NC(CC(=O)O)C(=O)O; ξPip = O=C(O)C1CCCCN1; ξV = CC(C)C(N)C(=O)O; ξP = O=C(O)C1CCCN1
# Tested on: Staphylococcus aureus (MSSA)
# Conditions: 24 h
# Summary of the method: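 Broth microdilution MIC per NCCLS M7-A6 with doubling serial dilutions, in cation-adjusted Mueller-Hinton broth supplemented with 0.625 mM calcium.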
row,Compound,MIC [µg/mL]
1,"CCCCCC(=O)NCC(=O)NC(CC(=O)O)C(=O)NC1C(=O)N2CCCCC2C(=O)NC(C(C)C(=O)O)C(=O)NC(CC(=O)O)C(=O)NCC(=O)NC(CC(=O)O)C(=O)NCC(=O)NC(C(C)N)C(=O)NC(C(C)C)C(=O)N2CCCC2C(=O)NC1C (stereo not drawn) [Compound 358, C6-Gly-Amphomycin] (Hexanoyl-GD[ξAbu(βξ-NH2)][Pip][ξAsp(βξ-Me)]DGDG[ξAbu(3ξ-NH2)]VP; lactam 3-C; configuration not given here)",>64
2,"CCCCCCCC(=O)NCC(=O)NC(CC(=O)O)C(=O)NC1C(=O)N2CCCCC2C(=O)NC(C(C)C(=O)O)C(=O)NC(CC(=O)O)C(=O)NCC(=O)NC(CC(=O)O)C(=O)NCC(=O)NC(C(C)N)C(=O)NC(C(C)C)C(=O)N2CCCC2C(=O)NC1C (stereo not drawn) [Compound 359, C8-Gly-Amphomycin] (Octanoyl-GD[ξAbu(βξ-NH2)][Pip][ξAsp(βξ-Me)]DGDG[ξAbu(3ξ-NH2)]VP; lactam 3-C; configuration not given here)",>64
3,"CCCCCCCCCC(=O)NCC(=O)NC(CC(=O)O)C(=O)NC1C(=O)N2CCCCC2C(=O)NC(C(C)C(=O)O)C(=O)NC(CC(=O)O)C(=O)NCC(=O)NC(CC(=O)O)C(=O)NCC(=O)NC(C(C)N)C(=O)NC(C(C)C)C(=O)N2CCCC2C(=O)NC1C (stereo not drawn) [Compound 360, C10-Gly-Amphomycin] (Decanoyl-GD[ξAbu(βξ-NH2)][Pip][ξAsp(βξ-Me)]DGDG[ξAbu(3ξ-NH2)]VP; lactam 3-C; configuration not given here)",>64
4,"CCCCCCCC(=O)Nc1cccc(CC(=O)NC(CC(=O)O)C(=O)NC2C(=O)N3CCCCC3C(=O)NC(C(C)C(=O)O)C(=O)NC(CC(=O)O)C(=O)NCC(=O)NC(CC(=O)O)C(=O)NCC(=O)NC(C(C)N)C(=O)NC(C(C)C)C(=O)N3CCCC3C(=O)NC2C)c1 (stereo not drawn) [Compound 361, C8-(M-Apa)-Amphomycin] (Octanoyl-[Phac(3-amino)]D[ξAbu(βξ-NH2)][Pip][ξAsp(βξ-Me)]DGDG[ξAbu(3ξ-NH2)]VP; lactam 3-C; configuration not given here)",>64
5,"CC(C)CCCCCC/C=C\C(=O)NC(CC(=O)O)C(=O)NC1C(=O)N2CCCCC2C(=O)NC(C(C)C(=O)O)C(=O)NC(CC(=O)O)C(=O)NCC(=O)NC(CC(=O)O)C(=O)NCC(=O)NC(C(C)N)C(=O)NC(C(C)C)C(=O)N2CCCC2C(=O)NC1C (stereo not drawn) [Compound 364, (10-Methyl-Undec-2-Enoyl)-Amphomycin] (X32-D[ξAbu(βξ-NH2)][Pip][ξAsp(βξ-Me)]DGDG[ξAbu(3ξ-NH2)]VP; lactam 2-C; configuration not given here)",4 to 8
6,CCCCCCCCCCCCCCC(=O)NC(CC(=O)O)C(=O)NC1C(=O)N2CCCCC2C(=O)NC(C(C)C(=O)O)C(=O)NC(CC(=O)O)C(=O)NCC(=O)NC(CC(=O)O)C(=O)NCC(=O)NC(C(C)NC(=O)[C@@H]2CCC(=O)N2)C(=O)NC(C(C)C)C(=O)N2CCCC2C(=O)NC1C (stereo partly drawn) [Compound 373] (Pentadecanoyl-[ξD][ξAbu(βξ-NH2)][ξPip][ξAsp(βξ-Me)][ξD]G[ξD]G[X25][ξV][ξP]; lactam 2-C),>64
7,"CC(=O)NCCCCCCCCCCCC(=O)NC(CC(=O)O)C(=O)NC1C(=O)N2CCCCC2C(=O)NC(C(C)C(=O)O)C(=O)NC(CC(=O)O)C(=O)NCC(=O)NC(CC(=O)O)C(=O)NCC(=O)NC(C(C)N)C(=O)NC(C(C)C)C(=O)N2CCCC2C(=O)NC1C (stereo not drawn) [Compound 374, (12-Acetylaminododecanoyl)-Amphomycin] (Ac-[12Ado]D[ξAbu(βξ-NH2)][Pip][ξAsp(βξ-Me)]DGDG[ξAbu(3ξ-NH2)]VP; lactam 3-C; configuration not given here; N-terminus assumed)",>64
8,"CC(C)C1NC(=O)C(C(C)N)NC(=O)CNC(=O)C(CC(=O)O)NC(=O)CNC(=O)C(CC(=O)O)NC(=O)C(C(C)C(=O)O)NC(=O)C2CCCCN2C(=O)C(NC(=O)C(CC(=O)O)NC(=O)CCCCCCCCCCCN)C(C)NC(=O)C2CCCN2C1=O (stereo not drawn) [Compound 375, (12-Aminododecoyl)-Amphomycin] (H-[12Ado]D[ξAbu(βξ-NH2)][Pip][ξAsp(βξ-Me)]DGDG[ξAbu(3ξ-NH2)]VP; lactam 3-C; configuration not given here)",>64

# Same assay, conditions: S. aureus (MSSA), CAMHB supplemented with 0.625 mM calcium, 24 hours at about 37° C.; a range = compound tested multiple times
row,Compound,MIC
1,(2-Dodecanoylamino-Thiazol-4-yl)Acetyl-Amphomycin [Compound 337],0.25 to 1 µg/mL
2,(12-Methyl-Tetradec-2-Enoyl)-Aspartocin-9-Sar [Compound 371],0.5 µg/mL
3,C12-Amphomycin-9-gDab [Compound 138],138/32 μg/mL
4,C13-Amphomycin-9-gDab [Compound 135],135/8 μg/mL
5,C14-Amphomycin-9-gDab [Compound 139],139/4 μg/mL
6,C15-Amphomycin-9-(Carbamoyl-Leu) [Compound 204],16 µg/mL
7,C17-Amphomycin-Gly-Lys [Compound 142],142/32 μg/mL
8,CH3—(CH2)7—NH—C(═O)-(M-Phenylacetyl)-Amphomycin [Compound 306],16 µg/mL
9,CH3—(CH2)7—NH—C(═O)-(p-Phenylacetyl)-Amphomycin [Compound 288],16 µg/mL
10,CH3—(CH2)10—NH—C(═O)-(M-Phenylacetyl)-Amphomycin [Compound 362],0.5 µg/mL
11,CH3—(CH2)10—NH—C(═O)-(p-Phenylacetyl)-Amphomycin [Compound 290],1 µg/mL
12,CH3—(CH2)13—NH—C(═O)-(M-Phenylacetyl)-Amphomycin [Compound 292],1 µg/mL
13,CH3—(CH2)13—NH—C(═O)-(p-Phenylacetyl)-Amphomycin [Compound 289],2 µg/mL
14,CH3—(CH2)15—NH—C(═O)-(M-Phenylacetyl)-Amphomycin [Compound 302],4 µg/mL
15,CH3—(CH2)15—NH—C(═O)-(p-Phenylacetyl)-Amphomycin [Compound 287],4 µg/mL
16,Lys-Gly-Amphomycin-9-C13 [Compound 332],>64 µg/mL
17,β-Isomer of (8-Dodecyloxy-Quinoline-2-Carbonyl)-Amphomycin [Compound 340],4 µg/mL
18,β-Isomer of CH3—(CH2)10—NH—C(═O)-(GABA)-Amphomycin [Compound 330],>64^† μg/mL
19,β-Isomer of CH3—(CH2)13—NH—C(═O)-Amphomycin [Compound 329],4^† μg/mL
